Reference: patent publication US5202315A, “Cephalosporin compounds” (Lucky, Ltd., priority 1989, dated 1993)
In brackets after ≈: the same amount, converted by molar mass. Where two headings read alike, the source gives them in different places.

Tests used:
[1] = system: Pseudomonas aeruginosa; experiment: Antibacterial activity against clinically isolated strains, MIC; type: cell-based
[2] = In-vivo absorbency (plasma concentrations & pharmacokinetic parameters); design: species or system SD rat (male); details: plasma, SD male rat, iv 20 mg/kg, read-out: Plasma Conc.
[3] = system: Staphylococcus aureus methicillin susceptible; experiment: Antibacterial activity against clinically isolated strains, MIC; type: cell-based; details: methicillin susceptible, 42 clinical isolates, broth microdilution test; for MIC90: read-out: MIC 90%
[4] = system: Escherichia coli; experiment: as above; type: cell-based; details: 38 clinical isolates, broth microdilution test
[5] = system: Klebsiella pneumoniae; experiment: as above; type: cell-based; details: 10 clinical isolates, broth microdilution test; for MIC90: read-out: MIC 90%
[6] = system: Citrobacter freundii ATCC 8090; experiment: Antibacterial activity, MIC; type: cell-based; details: ATCC8090, ATCC 8090, agar two-fold dilution, 37° C., 20 hours, read-out: MIC
How it was run: (§1)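 MIC by two-fold serial dilution in Mueller-Hinton agar; inoculum 2 μl at 10^7 CFU/ml; 37 °C, 20 h.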

[7] = system: Serratia marcescens ATCC 27117; experiment: Antibacterial activity, MIC; type: cell-based; details: ATCC27117, ATCC 27117, agar two-fold dilution, 37° C., 20 hours, read-out: MIC
How it was run: as §1

[8] = system: Salmonella typhimurium ATCC 14028; experiment: Antibacterial activity, MIC; type: cell-based; details: Salmonella enterica; ATCC 14028; agar two-fold dilution, 37° C., 20 hours; read-out: MIC
How it was run: as §1

[9] = system: Enterobacter cloacae ATCC 27508; experiment: Antibacterial activity, MIC; type: cell-based; details: ATCC27508, ATCC 27508, agar two-fold dilution, 37° C., 20 hours, read-out: MIC
How it was run: as §1

[10] = system: Micrococcus luteus ATCC 9341; experiment: Antibacterial activity, MIC; type: cell-based; details: ATCC9341, ATCC 9341, agar two-fold dilution, 37° C., 20 hours, read-out: MIC
How it was run: as §1

[11] = system: Klebsiella pneumoniae ATCC 10031; experiment: Antibacterial activity, MIC; type: cell-based; details: ATCC10031, ATCC 10031, agar two-fold dilution, 37° C., 20 hours, read-out: MIC
How it was run: as §1

[12] = system: Enterobacter aerogenes ATCC 29751; experiment: Antibacterial activity, MIC; type: cell-based; details: Klebsiella aerogenes, ATCC29751; ATCC 29751; agar two-fold dilution, 37° C., 20 hours; read-out: MIC
How it was run: as §1

[13] = system: Escherichia coli ATCC 25922; experiment: Antibacterial activity, MIC; type: cell-based; details: ATCC25922, agar two-fold dilution, 37° C., 20 hours
How it was run: as §1

[14] = system: Staphylococcus epidermidis ATCC 12228; experiment: Antibacterial activity, MIC; type: cell-based; details: ATCC12228, ATCC 12228, agar two-fold dilution, 37° C., 20 hours, read-out: MIC
How it was run: as §1

[15] = system: Morganella morganii ATCC 8076h; experiment: Antibacterial activity, MIC; type: cell-based; details: ATCC8076H, agar two-fold dilution, 37° C., 20 hours
How it was run: as §1

[16] = system: Providencia rettgeri ATCC 9250; experiment: Antibacterial activity, MIC; type: cell-based; details: ATCC9250, agar two-fold dilution, 37° C., 20 hours
How it was run: as §1

[17] = system: Pseudomonas aeruginosa ATCC 25619; experiment: Antibacterial activity, MIC; type: cell-based; details: ATCC25619, ATCC 25619, agar two-fold dilution, 37° C., 20 hours, read-out: MIC
How it was run: as §1

[18] = system: Pseudomonas aeruginosa ATCC 27853; experiment: Antibacterial activity, MIC; type: cell-based; details: ATCC27853, ATCC 27853, agar two-fold dilution, 37° C., 20 hours, read-out: MIC
How it was run: as §1

[19] = system: Bacillus cereus ATCC 11778; experiment: Antibacterial activity, MIC; type: cell-based; details: ATCC11778, ATCC 11778, agar two-fold dilution, 37° C., 20 hours, read-out: MIC
How it was run: as §1

[20] = system: Pseudomonas aeruginosa ATCC 10145; experiment: Antibacterial activity, MIC; type: cell-based; details: ATCC10145, ATCC 10145, agar two-fold dilution, 37° C., 20 hours, read-out: MIC
How it was run: as §1

[21] = system: Shigella flexneri ATCC 11836; experiment: Antibacterial activity, MIC; type: cell-based; details: ATCC11836, agar two-fold dilution, 37° C., 20 hours
How it was run: as §1

[22] = system: Shigella sonnei ATCC 11060; experiment: Antibacterial activity, MIC; type: cell-based; details: ATCC11060, ATCC 11060, agar two-fold dilution, 37° C., 20 hours, read-out: MIC
How it was run: as §1

[23] = system: Staphylococcus aureus ATCC 6538p; experiment: Antibacterial activity, MIC; type: cell-based; details: ATCC6538P, ATCC 6538p, agar two-fold dilution, 37° C., 20 hours, read-out: MIC
How it was run: as §1

[24] = system: Bacillus megaterium ATCC 9885; experiment: Antibacterial activity, MIC; type: cell-based; details: Priestia megaterium, ATCC9885; ATCC 9885; agar two-fold dilution, 37° C., 20 hours; read-out: MIC
How it was run: as §1

[25] = system: Acinetobacter calcoaceticus ATCC 15473; experiment: Antibacterial activity, MIC; type: cell-based; details: ATCC15473, ATCC 15473, agar two-fold dilution, 37° C., 20 hours, read-out: MIC
How it was run: as §1

[26] = system: Proteus vulgaris ATCC 6059; experiment: Antibacterial activity, MIC; type: cell-based; details: ATCC6059, ATCC 6059, agar two-fold dilution, 37° C., 20 hours, read-out: MIC
How it was run: as §1

[27] = system: Escherichia coli ATCC 10536; experiment: Antibacterial activity, MIC; type: cell-based; details: ATCC10536, agar two-fold dilution, 37° C., 20 hours
How it was run: as §1

[28] = system: Staphylococcus aureus ATCC 10537; experiment: Antibacterial activity, MIC; type: cell-based; details: ATCC10537, ATCC 10537, agar two-fold dilution, 37° C., 20 hours, read-out: MIC
How it was run: as §1

[29] = 54 clinical isolates, broth microdilution test

SMILES	MIC50 [1, 29] [µg/mL]	concentration at 1 min [2] [µg/mL]	concentration at 2.5 min [2] [µg/mL]	concentration at 5 min [2] [µg/mL]	concentration at 10 min [2] [µg/mL]	concentration at 20 min [2] [µg/mL]	concentration at 40 min [2] [µg/mL]	MIC50 [3] [µg/mL]	MIC90 [3] [µg/mL]	MIC50 [4] [µg/mL]	MIC90 [4] [µg/mL]	MIC50 [5] [µg/mL]	MIC90 [5] [µg/mL]	MIC [6] [µg/mL]	MIC [7] [µg/mL]	MIC [8] [µg/mL]	MIC [9] [µg/mL]	MIC [10] [µg/mL]	MIC [11] [µg/mL]	MIC [12] [µg/mL]	further results
CC[n+]1c(N)cc(N)nc1SCC1=C(C(=O)[O-])N2C(=O)C(NC(=O)/C(=N\OC(C)C(=O)O)c3csc(N)n3)C2SC1 (centres unmarked) [Compound I-5]	4 (≈ 6.41 µM)	134	91	72	49	29	13	4 (≈ 6.41 µM)	4 (≈ 6.41 µM)	0.063 (≈ 0.101 µM)	0.13 (≈ 0.208 µM)	0.063 (≈ 0.101 µM)	0.25 (≈ 0.401 µM)	0.063 (≈ 0.101 µM)	0.063 (≈ 0.101 µM)	0.13 (≈ 0.208 µM)	0.016 (≈ 0.0257 µM)	0.25 (≈ 0.401 µM)	0.031 (≈ 0.0497 µM)	0.5 (≈ 0.802 µM)	MIC90 ([1]; 54 clinical isolates, broth microdilution test, read-out: MIC 90%): 8 µg/mL (≈ 12.8 µM); MIC [13]: 0.063 µg/mL (≈ 0.101 µM); MIC [14]: 1 µg/mL (≈ 1.6 µM); MIC [15]: ≤ 0.008 µg/mL; MIC [16]: ≤ 0.008 µg/mL; MIC [17]: 1 µg/mL (≈ 1.6 µM); MIC [18]: 1 µg/mL (≈ 1.6 µM); MIC [19]: 128 µg/mL (≈ 205 µM); MIC [20]: 2 µg/mL (≈ 3.21 µM); MIC [21]: 0.031 µg/mL (≈ 0.0497 µM); MIC [22]: 0.031 µg/mL (≈ 0.0497 µM); MIC [23]: 2 µg/mL (≈ 3.21 µM); MIC [24]: 1 µg/mL (≈ 1.6 µM); MIC [25]: 4 µg/mL (≈ 6.41 µM); MIC [26]: 0.031 µg/mL (≈ 0.0497 µM); MIC [27]: 0.063 µg/mL (≈ 0.101 µM); MIC [28]: 2 µg/mL (≈ 3.21 µM)
C[n+]1c(N)cc(N)nc1SCC1=C(C(=O)[O-])N2C(=O)C(NC(=O)/C(=N\OCC(=O)O)c3csc(N)n3)C2SC1 (centres unmarked) [Compound I-7]	4 (≈ 6.72 µM)	128	83	59	43	29	15	4 (≈ 6.72 µM)	4 (≈ 6.72 µM)	0.016 (≈ 0.0269 µM)	0.063 (≈ 0.106 µM)	0.016 (≈ 0.0269 µM)	0.031 (≈ 0.052 µM)	0.031 (≈ 0.052 µM)	0.016 (≈ 0.0269 µM)	0.063 (≈ 0.106 µM)	≤ 0.008	0.5 (≈ 0.839 µM)	0.016 (≈ 0.0269 µM)	0.5 (≈ 0.839 µM)	MIC90 [1]: 16 µg/mL (≈ 26.9 µM); MIC [13]: 0.016 µg/mL (≈ 0.0269 µM); MIC [14]: 1 µg/mL (≈ 1.68 µM); MIC [15]: ≤ 0.008 µg/mL; MIC [16]: ≤ 0.008 µg/mL; MIC [17]: 2 µg/mL (≈ 3.36 µM); MIC [18]: 2 µg/mL (≈ 3.36 µM); MIC [19]: 128 µg/mL (≈ 215 µM); MIC [20]: 4 µg/mL (≈ 6.72 µM); MIC [21]: ≤ 0.008 µg/mL; MIC [22]: 0.016 µg/mL (≈ 0.0269 µM); MIC [23]: 2 µg/mL (≈ 3.36 µM); MIC [24]: 0.5 µg/mL (≈ 0.839 µM); MIC [25]: 4 µg/mL (≈ 6.72 µM); MIC [26]: 0.016 µg/mL (≈ 0.0269 µM); MIC [27]: 0.016 µg/mL (≈ 0.0269 µM); MIC [28]: 2 µg/mL (≈ 3.36 µM)
